Reference: patent publication US20020082264A1, “Medicaments for viral diseases” (priority 2000, published 2002)
Counter-ions that a name gives are not always drawn.

Legend:
[1] = system: hepatitis B virus; test: antiviral action on hepatitis B virus in HepG2.2.15 cells (HBV DNA dot-blot hybridization); type: cell-based; conditions: 96 h, 2 x 4 days incubation, intra- or extracellular hepatitis B-specific DNA band reduced by 50% vs untreated sample
Experimental: The antiviral action of the compounds according to the invention on hepatitis B virus was investigated by methods based on those described by M. A. Sells et al., Proc. Natl. Acad. Sci. 84, 1005-1009 (1987) and B. E. Korba et al., Antiviral Research 19, 55-70 (1992).
The antiviral tests were carried out in 96-well microtitre plates. The first vertical row of the plate received only growth medium and HepG2.2.15 cells. It served as virus control.
Stock solutions of the test compounds (50 mM) were initially dissolved in DMSO, and further dilutions were prepared in the HepG2.2.15 growth medium. The compounds according to the invention were usually pipetted in a test concentration of 100 μM (lst test concentration) in each case into the second vertical test row of the microtitre plate and subsequently diluted in twofold steps 2^10 times in growth medium +2% by weight fetal calf serum (volume 25 μl).
Each well of the microtitre plate then contained 225 μl of HepG2.2.15 cell suspension (5×10^4 cells/ml) in growth medium +2% by weight of fetal calf serum. The test mixture was incubated at 37° C. and 5% CO2 (v/v) for 4 days.
The supernatant was then aspirated off and discarded, and the wells received 225 μl of freshly prepared growth medium. The compounds according to the invention were each added anew as 10-fold concentrated solution in a volume of 25 μl. The mixtures were incubated for a further 4 days.
The supematants/cells were then harvested and sucked by means of a vacuum onto 96-well dot-blot chambers covered with a nylon membrane (in accordance with the manufacturer's information).
After the supernatants or lysed cells had been transferred to the nylon membrane of the blot apparatus (see above), the intra- or extracellular supernatants of the HepG2.2.15 cells were denatured (1.5 M NaCl/0.5 N NaOH), neutralized (3 M NaCl/0.5 M Tris HCl, pH 7.5) and washed (2× SSC). The DNA was then baked onto the membrane by incubating the filters at 120° C. for 2-4 hours.
Detection of the viral DNA from the treated HepG2.2.15 cells on the nylon filters was easily carried out with non-radioactive, digoxigenin-labelled hepatitis B-specific DNA probes, each of which was labelled with digoxigenin, purified and employed for the hybridization in accordance with the manufacturer's information.
The prehybridization and hybridization took place in 5× SSC, 1× blocking reagent, 0.1% by weight N-lauroylsarcosine, 0.02% by weight SDS and 100 μg of herring sperm DNA. The prehybridization took place at 60° C. for 30minutes, and the specific hybridization with 20 to 40 ng/ml of the digoxigenized, denatured HBV-specific DNA took place at 60° C. for 14 hours. The filters were then washed.
The immunological detection of the digoxigenin-labelled DNA took place in accordance with the manufacturer's information:
The filters were washed and prehybridized in a blocking reagent (in accordance with the manufacturer's information). Hybridization was then carried out with an anti-DIG antibody coupled to alkaline phosphatase for 30 minutes. After a washing step, the substrate of alkaline phosphatase, CSPD, was added, incubated with the filters for 5 minutes, then packed in plastic film and incubated at 37° C. for a further 15 minutes. The chemiluminescence of the hepatitis B-specific DNA signals was visualized by exposing the filters to an X-ray film (incubation depending on signal strength: 10 minutes to 2 hours).
The half-maximum inhibitory concentration (IC50, 50% inhibitory concentration) was determined as the concentration at which the intra- or extracellular hepatitis B-specific band was reduced by the compound according to the invention by 50% compared with an untreated sample.

| SMILES | melting point [°C] | IC50 [1] [nM] |
| --- | --- | --- |
| O=C(O)CCC1C(=O)c2ccc(-c3ccccc3)cc2OC12CCCCC2 (stereo not drawn) | 196 | – |
| N#CCCC1C(=O)c2cc(F)c(F)cc2OC12CCCCC2 (stereo not drawn) | 80 | – |
| N#CCCC1(CCC#N)C(=O)c2ccc(Br)cc2OC12CCCCC2 | 145 to 149 | – |
| N#CCCC1(CCC#N)C(=O)c2ccc(-c3cccnc3)cc2OC12CCCCC2 | 190 to 195 | – |
| N#CCCC1C(=O)c2ccc(-c3ccc(F)cc3)cc2OC12CCCCC2 (stereo not drawn) | 61 to 63 | – |
| Cc1cccc(-c2ccc3c(c2)OC2(CCCCC2)C(CCC#N)C3=O)c1 (stereo not drawn) [Example 76] | 86 to 90 | 2 to 120 |
| N#CCCC1C(=O)c2ccc(-c3ccc(F)c(F)c3)cc2OC12CCCC2 (stereo not drawn) [Example 82] | – | 2 to 120 |
| N#CCCC1C(=O)c2ccc(-c3cccc(C#N)c3)cc2OC12CCCC2 (stereo not drawn) [Example 97] | – | 2 to 120 |
| N#CCCC1C(=O)c2ccc(-c3ccc(F)c(F)c3)cc2OC12CCC2 (stereo not drawn) [Example 99] | – | 2 to 120 |
| N#CCCC1C(=O)c2ccc(-c3cccc([N+](=O)[O-])c3)cc2OC12CCCC2 (stereo not drawn) [Example 116] | – | 2 to 120 |
| N#CCCC1C(=O)c2ccc(-c3cccc(N)c3)cc2OC12CCCCC2 (stereo not drawn) [Example 132, 3-(2-Cyanoethyl)-7-(3-aminophenyl)spiro[2H-1-benzopyran-2,1′-cyclohexan]-4(3H)-one Hydrochloride] | – | 2 to 120 |
